From publication PMC12371487, “Phenylalkyl Acetophenones and Anacardic Acids from Knema oblongifolia with Synthetic Analogues as Anti-infectives and Antibacterial Agents” (ACS Bio & Med Chem Au, 2025)
≈ marks a conversion by molar mass, not a printed value.

Key:
[1] = tested on: Dictyostelium discoideum (Dd) in infection; experiment: Dd-Mm infection assay: host amoeba growth (fluorescence); format: cell-based; settings: infected Dd, fluorescence AUC over 72 h at 25 °C, 6-concentration curve, top 100 μM, 1:3 steps, IC50 interpolated; for IC50: Dictyostelium discoideum
Protocol: (§1) Plant extracts, fractions, or isolated compounds were stored at −20 °C and wrapped in aluminum foil if necessary. All manipulations with extracts, fractions, or compounds were performed under a sterile hood. Extracts, fractions, and compounds were resuspended throughout in DMSO to best solubilize extracts with diverse constituents. Extracts, fractions, or compounds were added to the assay plate in a 1:100 dilution. Assay solutions of extracts, fractions, and compounds were prepared in 96-well plates, stored at −20 °C, and thawed before the experiment at room temperature or warmer with or without shaking/vortexing to obtain a clear assay solution. Extracts were tested at 25 μg/mL and purified compounds in a dose–response curve of 6 concentrations with 100 μM being the top concentration and a 1:3 dilution step between each testing concentration. Since fractions were not weighed individually, the injection mass was used to calculate an average mass per fraction and thus a nominal mass concentration. Fractions were tested at a nominal concentration of 10 μg/mL.
(§2) As described in Nitschke et al. and Mottet et al., Dd Ax2(ka) expressing mCherry from the act5 chromosomal locus was infected with Mm M strain expressing the lux operon (luxCDABE) , by spinoculation.
(§3) Briefly, the day before the experiment, Mm was cultivated in 7H9 broth (Becton Dickinson, Difco Middlebrook 7H9) supplemented with 10% OADC (Becton Dickinson) and 0.05% tyloxapol (Sigma-Aldrich) and 50 μg/mL kanamycin at 32 °C overnight with continuous shaking. Additionally, the day before the experiment, 10^7 amoebae were plated in HL5-C in a 10 cm Petri dish (Falcon). On the day of the experiment, a volume of the Mm culture corresponding to a multiplicity of infection of 25 with respect to the number of amoebae in the Petri dish was added to the semiconfluent amoebae monolayer. Subsequently, the Petri dishes were centrifuged twice at 500g, as described in Mottet et al. To remove extracellular bacteria, dishes were rinsed with fresh HL5-C, and the infected cell population was resuspended in HL5-C with 5 U/mL penicillin and 5 μg/mL streptomycin (Gibco) to inhibit the extracellular growth of bacteria during the course of the experiment.
(§4) For testing fractions and purified compounds, 20 μL of infected cell suspension was plated into each well of a 384-well plate (Interchim FP-BA8240) to an effective cell number of 1 × 10^4 cells per well. Fractions or compounds including a vehicle control (0.3% DMSO final concentration) and a positive control (rifabutin, 10 μM final concentration) were added using an electronic multipipette (Sartorius). Subsequently, the well plates were sealed with a gas impermeable membrane (H769.1, Carl Roth), briefly centrifuged, and intracellular bacterial growth was monitored using an Agilent BioTek H1 plate reader and an Agilent BioTek BioStack plate stacker by recording luminescence over 72 h at 25 °C with readings taken every hour. Fluorescence was also recorded to monitor amoeba growth.
(§5) For both assays, growth curves were obtained by measuring the luminescence and fluorescence as a proxy for bacterial growth and host growth, respectively, for 72 h with time-points taken every hour. The “normalized residual growth” was computed by calculating the area under the curve (AUC, trapezoid method) and normalizing it to the vehicle control (0.3% DMSO, set at 1) and a baseline curve (set at 0). The baseline curve was calculated by taking the median of the first measurement of all wells in a plate and extrapolating it over the complete time course. The threshold for hit detection was arbitrarily fixed at a cutoff of normalized residual growth ≤0.5. Normalized values were averaged over technical and biological replicates (all experiments on isolated compounds have at least n = 3 and N = 3, whereas the primary extract screening and microfractions testing had values of n = 1 and N = 3). […]

[2] = tested on: Mycobacterium marinum (Mm) in infection of Dictyostelium discoideum; experiment: Dd-Mm infection assay: intracellular Mm growth (luminescence); format: cell-based; settings: for IC50: Mm inside Dd, luminescence AUC over 72 h at 25 °C, 6-concentration curve, top 100 μM, 1:3 steps, IC50 interpolated
Protocol: as §1, §2, §3, §4, §5

[3] = tested on: Mycobacterium marinum (Mm) in broth; experiment: Mm growth in broth (antibiotic assay, luminescence); format: cell-based; settings: 72 h; for IC50 on Mm in broth: Mm in 7H9 broth, luminescence at 32 °C, IC50 interpolated; for IC50: Mycobacterium marinum, read-out: IC50 on Mm in broth
Protocol: as §1, with “Extracts, fractions, and compounds were resuspended throughout in DMSO to best solubilize extracts with diverse constituents.” left out
For testing bacteria in broth, the preculture was diluted to a bacterial density of 3.75 × 10^5 bacteria per mL in 7H9 medium. Plating bacteria and compounds or fractions was performed analogously to the infection assay described above. Bacteria growth was monitored with the Agilent BioTek H1 plate reader by recording luminescence at 32 °C.
For both assays, growth curves were obtained by measuring the luminescence and fluorescence as a proxy for bacterial growth and host growth, respectively, for 72 h with time-points taken every hour. The “normalized residual growth” was computed by calculating the area under the curve (AUC, trapezoid method) and normalizing it to the vehicle control (0.3% DMSO, set at 1) and a baseline curve (set at 0). The baseline curve was calculated by taking the median of the first measurement of all wells in a plate and extrapolating it over the complete time course. The threshold for hit detection was arbitrarily fixed at a cutoff of normalized residual growth ≤0.5.
This procedure was also applied to screening extracts with slight modifications. The day before the experiment we preplated 10 μL of HL5-C using a dispenser (Thermo Multidrop), subsequently we preplated 2.2 μL of dissolved extracts from 96-well plates into quadrants 1, 2, and 3 of 384-well plates, whereas quadrant 4 was used for positive and vehicle controls. Preplating of extracts was performed using a liquid handler (Agilent Bravo). In total, 24 extract plates were distributed in triplicate into […] 384-well plates, amounting to 24 assay plates. The prepared plates were sealed and stored at 4 °C overnight. On the day of the experiment, nine 10 cm Petri dishes were infected (as described before) and grouped into three pools. The cell suspension was adjusted to 10^6 cells/mL, and 10 μL was plated into the 24 assay plates, resulting in 10^4 cells per well, as used for conventional infection experiments. Plates were sealed and placed in the plate stacker that supplied the plate reader. The same procedure was used to screen the same extracts on Mm in a broth. For both assays, the first time points and a time point after 72 h were recorded. Subsequently, we normalized the end point, first with the median of the full assay plate at the first time point and second with the end point of the vehicle controls in the respective assay plate.
For IC50 estimation, we used a rudimentary approach of interpolating the sample concentration between the two normalized residual growth values, which were closest to a value of 0.5.

[4] = tested on: Staphylococcus aureus (Sa) Newman strain; experiment: MIC determination in Mueller-Hinton broth (CLSI) on Sa; format: cell-based; settings: Mueller-Hinton broth, CLSI; for MIC: Staphylococcus aureus, NEWMAN, read-out: MIC on Sa
Protocol: MICs were determined in Mueller–Hinton (MH) broth according to CLSI guidelines and were repeated at least on three different occasions.
The Newman strain ofS. aureus and the UCBPP-PA14 strain ofP. aeruginosa were used in this study.

[5] = tested on: Staphylococcus aureus (Sa) Newman strain; settings: literature report; reference number not shown in text; cited from earlier work

SMILES: CC(=O)c1ccc(O)c(Cl)c1O [Compound 15, 3-Chloro-2,4-dihydroxyacetophenone]
- IC50 [1]: 22.2 µM
- IC50 [2]: 22.2 µM
- IC50 on Mm in broth [3]: not active
- MIC on Sa [4]: not active

SMILES: CC(=O)c1cc(Cl)c(O)cc1O [Compound 16, 5-Chloro-2,4-dihydroxyacetophenone]
- IC50 [1]: 22.2 µM
- IC50 [2]: 22.2 µM
- IC50 on Mm in broth [3]: not active
- MIC on Sa [4]: not active

SMILES: CC(=O)c1cc(Cl)c(O)c(Cl)c1O [Compound 17, 3,5-Dichloro-2,4-dihydroxyacetophenone]
- IC50 [1]: 66.7 µM
- IC50 [2]: 66.7 µM
- IC50 on Mm in broth [3]: not active
- MIC on Sa [4]: not active

SMILES: CC(=O)c1ccc(O)c(Br)c1O [Compound 18, 3-Bromo-2,4-dihydroxyacetophenone]
- IC50 [1]: 66.7 µM
- IC50 [2]: 66.7 µM
- IC50 on Mm in broth [3]: not active
- MIC on Sa [4]: not active

SMILES: CC(=O)c1cc(Br)c(O)cc1O [Compound 19, 5-Bromo-2,4-dihydroxyacetophenone]
- IC50 [1]: 22.2 µM
- IC50 [2]: 66.7 µM
- IC50 on Mm in broth [3]: not active
- MIC on Sa [4]: not active

SMILES: CC(=O)c1cc(Br)c(O)c(Br)c1O [Compound 20, 3,5-Dibromo-2,4-dihydroxyacetophenone]
- IC50 [1]: 66.7 µM
- IC50 [2]: 66.7 µM
- IC50 on Mm in broth [3]: not active
- MIC on Sa [4]: not active

SMILES: O=C(/C=C/c1cccc2ccccc12)c1cc(Cl)c(O)cc1O [Compound 26, (E)-1-(5-Chloro-2,4-dihydroxyphenyl)-3-(naphthalen-1-yl)prop-2-en-1-one]
- IC50 [1]: 1.47 µM
- IC50 [2]: 0.59 µM
- IC50 [3]: 47.6 µM
- MIC on Sa [4]: not active

SMILES: O=C(/C=C/c1c2ccccc2cc2ccccc12)c1cc(Cl)c(O)cc1O [Compound 27, (E)-3-(Anthracen-9-yl)-1-(5-chloro-2,4-dihydroxyphenyl)prop-2-en-1-one]
- IC50 [1]: 15.9 µM
- IC50 [2]: 0.59 µM
- specificity window (IC50 on Dd vs IC50 on intracellular Mm) ([2]; ratio of IC50 against Dd growth to IC50 on intracellular Mm): 25 fold
- IC50 on Mm in broth [3]: not active
- MIC on Sa [4]: 2 mg·L–1
- MIC [4]: 2 mg/L (≈ 5.34 µM)

SMILES: CC(=O)c1c(O)cc(O)c(Cl)c1CCCCCCc1ccccc1 [Compound 28, 1-(3-Chloro-4,6-dihydroxy-2-(6-phenylhexyl)phenyl)ethan-1-one]
- IC50 [1]: 0.82 µM
- IC50 [2]: 2.47 µM
- IC50 [3]: 22.2 µM
- MIC [4]: 4 mg/L (≈ 11.5 µM)

SMILES: CC(=O)c1c(O)c(Cl)c(O)c(Cl)c1CCCCCCc1ccccc1 [Compound 29, 1-(3,5-Dichloro-2,4-dihydroxy-6-(6-phenylhexyl)phenyl)ethan-1-one]
- IC50 [1]: 7.41 µM
- IC50 [2]: 2.47 µM
- IC50 on Mm in broth [3]: not active
- MIC [4]: 4 to 8 mg/L (≈ 10.5 to 21 µM)

SMILES: CCCCCCCCCCCCCCCc1cccc(O)c1C(=O)O [anacardic acid]
- IC50 on Dd in infection [1]: not active
- IC50 [2]: 22.2 µM
- IC50 on Mm in broth [3]: not active
- MIC on Sa [4]: 16 mg·L–1
- MIC on Sa ([4]; listed as Anacardic acid): 16 μg·mL^–1
- active dose against Sa (already reported) [5]: 25 μg mL^–1
